These molecules were tested on PC-3 cells (assay: Tumor cell growth inhibition, sulforhodamine B (SRB) staining). Conditions: PC-3 human prostatic carcinoma cells, 48 hrs, absorbance 540 nm, adriamycin as positive control.
Type: cell-based
Protocol: PC-3 cells (ATCC, US), human prostatic carcinoma cell line, were cultured in RMPI 1640 supplemented with 10% fetal bovine serum.
Appropriate concentrations of cells (5×10^4 cells/ml) cultured in RMPI 1640 supplemented with 5% fetal bovine serum were poured into 96-well plate and incubated at 37° C. in 5% CO2 condition. The day after the incubation, PC-3 cells were fixed on Time zero (T0) plate by adding 50 μl/well of 50% trichloroacetic acid and the cell concentration was set to zero point by fixing the cells. In the cells treated with test samples, 50% TCA was added to each wells in 50 ul/well after 48 hrs to fix the cells. The final concentration of adding test compounds were 0.01, 0.03, 0.1, 0.3, 1 μg/ml respectively. Then, each fixed plate was washed, dried and 100 μl/well of 0.4% reaction solution containing sulforhodamine B (SRB) reagent dissolved in 0.1% acetic acid was added thereto to stain the cells. 30 minutes later, the cell was washed with 0.1% acetic acid, dried at room temperature, and 10 mM of TRIS base (pH 10.5) was added thereto to dissolve the staining agent. Finally, the absorbance detected at 540 nm was measured and the value was conversed into percentage comparing with that of control group. IC50 (μg/ml), the concentration of the group required to inhibit the cancer cell growth by 50%, was calculated from the data (AA: IC50's<1, A: IC50's<5, B: IC50's<10 and C: IC50's>10). Also, the inhibiting activity of cell growth was expressed as various symbols in accordance with the potency of examples e.g., AA: closely equivalent (1˜2 times), A: slightly weaker (3˜5 times), B: weaker (5˜10 times), C: very weaker (more than 10 times) than that of adriamycin used as a positive control group.
In the case of `COc1ccccc1CCN1CC=C(CCC(=O)NO)C1=O` [Example 36, N-hydroxy-3-{1-[2-(2-methoxy-phenyl)-ethyl]-2-oxo-2,5-dihydro-1H-pyrrol-3-yl}-propionamide], the IC50 is reported as under 5 µg/mL.
For `COc1ccc(CN2CCC=C(CC(=O)NO)C2=O)c(OC)c1` [Example 82, 2-[1-(2,4-dimethoxy-benzyl)-2-oxo-1,2,5,6-tetrahydro-pyridin-3-yl]-N-hydroxy-acetamide], the IC50 was over 10 µg/mL.
Work on `O=C(CCC1CCCN(CCc2ccccc2)C1=O)NO` (centres unmarked) [Example 81, N-hydroxy-3-(2-oxo-1-phenethyl-piperidine-3-yl)-propionamide] yielded an IC50 of over 10 µg/mL.
For `O=C(CCC1=CCN(CCc2ccccc2[N+](=O)[O-])C1=O)NO` [Example 31, N-hydroxy-3-{1-[2-(2-nitro-phenyl)-ethyl]-2-oxo-2,5-dihydro-1H-pyrrol-3-yl}-propionamide], the IC50 was under 5 µg/mL.
In the case of `COc1ccc(CN2CC=C(CCC(=O)O)C2=O)c(OC)c1` [Example 16, 3-[1-(2,4-dimethoxy-benzyl)-2-oxo-2,5-dihydro-1H-pyrrol-3-yl]-propionic acid], the IC50 is reported as over 10 µg/mL.
Work on `Cc1cccc(CCCN2CC=C(CCC(=O)NO)C2=O)c1` [Example 42, N-hydroxy-3-[2-oxo-1-(3-m-tolyl-propyl)-2,5-dihydro-1H-pyrrol-3-yl]-propionamide] yielded an IC50 of under 1 µg/mL.
In the case of `O=C(CCC1=CCN(CCc2cccc(F)c2)C1=O)NO` [Example 29, 3-{1-[2-(3-fluoro-phenyl)-ethyl]-2-oxo-2,5-dihydro-1H-pyrrol-3-yl}-N-hydroxy-propionamide], the IC50 is reported as under 5 µg/mL.
Molecule `CS(=O)(=O)N(c1ccc(CN2CCC=C(CCC(=O)NO)C2=O)cc1)S(C)(=O)=O` [Example 76, N-hydroxy-3-[1-(4-dimethylsulfonylamino-benzyl)-2-oxo-1,2,5,6-tetrahydro-pyridin-3-yl]-propionamide] has an IC50 of over 10 µg/mL.
`COc1ccc(CN2CC=C(CCC(=O)NO)C2=O)cc1` [Example 11, N-hydroxy-3-[1-(4-methoxy-benzyl)-2-oxo-2,5-dihydro-1H-pyrrol-3-yl]-propionamide] showed an IC50 of under 1 µg/mL.
With `CC(=O)Nc1ccc(CN2CCC=C(CCC(=O)NO)C2=O)cc1` [Example 74, 3-[1-(4-acetylamino-benzyl)-2-oxo-1,2,5,6-tetrahydro-pyridin-3-yl)-N-hydroxy-propionamide] the IC50 was over 10 µg/mL.
With `O=C(O)CCC1=CCCN(Cc2ccccc2)C1=O` [Example 64, 3-(1-benzyl-2-oxo-1,2,5,6-tetrahydro-pyridin-3-yl)-propionic acid] the IC50 was over 10 µg/mL.
`Cc1ccccc1CCCN1CC=C(CCC(=O)NO)C1=O` [Example 41, N-hydroxy-3-[2-oxo-1-(3-o-tolyl-propyl)-2,5-dihydro-1H-pyrrol-3-yl]-propionamide] gave an IC50 of under 10 µg/mL.
Molecule `COc1ccc(CN2CCC=C(CCC(=O)NO)C2=O)c(OC)c1` [Example 57, 3-[1-(2,4-dimethoxybenzyl)-2-oxo-1,2,5,6-tetrahydro-pyridin-3-yl]-N-hydroxy-propionamide] has an IC50 of under 1 µg/mL.
`O=C(CCC1=CCN(CCc2cccc([N+](=O)[O-])c2)C1=O)NO` [Example 32, N-hydroxy-3-{1-[2-(3-nitro-phenyl)-ethyl]-2-oxo-2,5-dihydro-1H-pyrrol-3-yl}-propionamide] was tested, and the IC50 was under 5 µg/mL.
For `O=C(CC1=CCN(Cc2ccccc2)C1=O)NO` [Example 20, 2-(1-benzyl-2-oxo-2,5-dihydro-1H-pyrrol-3-yl)-N-hydroxy-acetamide], the IC50 was over 10 µg/mL.
`COc1cccc(CN2CC=C(CCC(=O)NO)C2=O)c1` [Example 10, N-hydroxy-3-[1-(3-methoxy-benzyl)-2-oxo-2,5-dihydro-1H-pyrrol-3-yl]-propionamide] gave an IC50 of under 1 µg/mL.
`O=C(CCC1=CCN(CCCc2ccc(-c3ccccc3)cc2)C1=O)NO` [Example 55, 3-[1-(3-biphenyl-4-yl-propyl)-2-oxo-2,5-dihydro-1H-pyrrol-3-yl]-N-hydroxy-propionamide] showed an IC50 of under 1 µg/mL.
With `Cc1ccccc1CN1CC=C(CCC(=O)NO)C1=O` [Example 6, N-hydroxy-3-[1-(2-methyl-benzyl)-2-oxo-2,5-dihydro-1H-pyrrol-3-yl]-propionamide] the IC50 was under 10 µg/mL.
`O=C(CCC1=CCN(CCc2ccc3ccccc3c2)C1=O)NO` [Example 53, N-hydroxy-3-[1-(2-naphthalene-2-yl-ethyl)-2-oxo-2,5-dihydro-1H-pyrrol-3-yl]-propionamide] showed an IC50 of under 1 µg/mL.
`Cc1ccc(CCCN2CC=C(CCC(=O)NO)C2=O)cc1` [Example 40, N-hydroxy-3-[2-oxo-1-(3-p-tolyl-propyl)-2,5-dihydro-1H-pyrrol-3-yl]-propionamide] showed an IC50 of under 5 µg/mL.
`O=C(CC1=CCCN(CCCCc2ccccc2)C1=O)NO` [Example 86, N-hydroxy-2-[2-oxo-1-(4-phenyl-butyl)-1,2,5,6-tetrahydro-pyridin-3-yl]-N-hydroxy-acetamide] was tested, and the IC50 was over 10 µg/mL.
For `O=C(CCC1=CCCCN(CCCCc2ccccc2)C1=O)NO` [Example 108, N-Hydroxy-3-[2-oxo-1-(4-phenyl-butyl)-2,5,6,7-tetrahydro-1H-azepin-3-yl]-propionamide], the IC50 was over 10 µg/mL.
`O=C(CC1CCN(Cc2ccccc2)C1=O)NO` (centres unmarked) [Example 25, 2-(1-benzyl-2-oxo-pyrrolidin-3-yl)-N-hydroxy-acetamide] gave an IC50 of over 10 µg/mL.
`COc1ccc(CN2CCCC(CC(=O)NO)C2=O)c(OC)c1` (centres unmarked) [Example 92, 2-[1-(2,4-dimethoxy-benzyl)-2-oxo-piperidine-3-yl]-N-hydroxy-acetamide] was tested, and the IC50 was over 10 µg/mL.
Work on `O=C(CCC1=CCN(CCc2ccccc2F)C1=O)NO` [Example 28, 3-{1-[2-(2-fluoro-phenyl)-ethyl]-2-oxo-2,5-dihydro-1H-pyrrol-3-yl}-N-hydroxy-propionamide] yielded an IC50 of under 5 µg/mL.
In the case of `COc1ccc(CCN2CC=C(CCC(=O)NO)C2=O)cc1` [Example 38, N-hydroxy-3-{1-[2-(4-methoxy-phenyl)-ethyl]-2-oxo-2,5-dihydro-1H-pyrrol-3-yl}-propionamide], the IC50 is reported as under 5 µg/mL.
`O=C(CCC1=CCN(Cc2ccc3ccccc3c2)C1=O)NO` [Example 49, N-hydroxy-3-(1-naphthalene-2-ylmethyl-2-oxo-2,5-dihydro-1H-pyrrol-3-yl)-propionamide] showed an IC50 of under 5 µg/mL.
`O=C(CC1=CCN(Cc2ccc(OCc3ccccc3)cc2)C1=O)NO` [Example 24, 2-[1-(4-benzyloxy-benzyl)-2-oxo-2,5-dihydro-1H-pyrrol-3-yl]-N-hydroxy-acetamide] gave an IC50 of over 10 µg/mL.
Molecule `O=C(CCC1=CCCN(Cc2ccc3ccccc3c2)C1=O)NO` [Example 103, N-hydroxy-3-(1-(naphthalene-2-yl-methyl)-2-oxo-1,2,5,6-tetrahydro-pyridin-3-yl)-propionamide] has an IC50 of under 10 µg/mL.
With `O=C(CCC1=CCN(CCc2ccc(F)cc2)C1=O)NO` [Example 30, 3-{1-[2-(4-fluoro-phenyl)-ethyl]-2-oxo-2,5-dihydro-1H-pyrrol-3-yl}-N-hydroxy-propionamide] the IC50 was under 5 µg/mL.
`O=C(CCC1=CCCN(Cc2ccccc2)C1=O)Nc1ccccn1` [Example 69, 3-(1-benzyl-2-oxo-1,2,5,6-tetrahydro-pyridin-3-yl)-N-pyridin-2-yl-propionamide] was tested, and the IC50 was over 10 µg/mL.
`COc1ccccc1CN1CC=C(CCC(=O)NO)C1=O` [Example 9, N-hydroxy-3-[1-(2-methoxy-benzyl)-2-oxo-2,5-dihydro-1H-pyrrol-3-yl]-propionamide] gave an IC50 of under 5 µg/mL.
Molecule `COc1ccc(CCCN2CC=C(CCC(=O)NO)C2=O)cc1` [Example 46, N-hydroxy-3-{1-[3-(4-methoxy-phenyl)-propyl]-2-oxo-2,5-dihydro-1H-pyrrol-3-yl]-propionamide] has an IC50 of under 10 µg/mL.
Work on `Cc1cccc(CN2CC=C(CCC(=O)NO)C2=O)c1` [Example 7, N-hydroxy-3-[1-(3-methyl-benzyl)-2-oxo-2,5-dihydro-1H-pyrrol-3-yl]-propionamide] yielded an IC50 of under 5 µg/mL.
In the case of `O=C(CCC1=CCCN(Cc2ccccc2)C1=O)NO` [Example 58, N-hydroxy-3-(1-benzyl-2-oxo-1,2,5,6-tetrahydro-pyridin-3-yl)-propionic acid], the IC50 is reported as under 10 µg/mL.
With `COc1ccc(CN2CCC=C(CCC(=O)O)C2=O)c(OC)c1` [Example 63, 3-[1-(2,4-dimethoxybenzyl)-2-oxo-1,2,5,6-tetrahydro-pyridin-3-yl)-propionic acid] the IC50 was over 10 µg/mL.
With `O=C(CCC1=CCN(CCc2ccc(Br)cc2)C1=O)NO` [Example 35, 3-{1-[2-(4-bromo-phenyl)-ethyl]-2-oxo-2,5-dihydro-1H-pyrrol-3-yl}-N-hydroxy-propionamide] the IC50 was under 5 µg/mL.
With `O=C(CCC1=CCCN(CCc2ccccc2)C1=O)NO` [Example 60] the IC50 was under 10 µg/mL.
`O=C(CC1=CCCN(Cc2ccccc2)C1=O)NO` [Example 83, 2-(1-benzyl-2-oxo-1,2,5,6-tetrahydro-pyridin-3-yl)-N-hydroxy-acetamide] gave an IC50 of over 10 µg/mL.
With `O=C(CCC1=CCN(CCCc2ccc3ccccc3c2)C1=O)NO` [Example 56, N-hydroxy-3-[1-(3-naphthalene-2-yl-propyl)-2-oxo-2,5-dihydro-1H-pyrrol-3-yl]-propionamide] the Cell growth inhibition was “AAA”.
`O=C(CCC1=CCN(CCCc2ccc(Cl)cc2)C1=O)NO` [Example 45, 3-{1-[3-(4-chloro-phenyl)-propyl]-2-oxo-2,5-dihydro-1H-pyrrol-3-yl]-N-hydroxy-propionamide] showed an IC50 of under 10 µg/mL.

— patent publication US7723376B2, “2-oxo-heterocyclic compounds and pharmaceutical compositions” (Korea Research Institute of Bioscience and Biotechnology, priority 2003, dated 2010)
